According to patent US20050037975A1, “Method for treatment of glutamate related disorders” (priority 1997, published 2005):
Residue numbers refer to the chain shown, from its start. One block for each molecule: values may come before it.

Experiments:
[1] = system: brain glutamate receptors (synaptic membranes); experiment: [3H]glutamate binding to mouse brain synaptic membranes in vitro; settings: for effect on glutamate binding to synaptic membrane preparations: in vitro, without glycine
Protocol: Binding Studies—Synaptic membranes (100 μg protein) were isolated (Y. H. Lee et al., J. Neurosci. Res. 40, 797-806 (1995)) form whole brain homogenate of male Swiss Webster mice and were incubated in 0.1 mM L-glutamate for 30 minutes at 25° C. After addition of 50 nM of [^3H]glutamate, incubation was continued for an additional 45 minutes. Reactions were terminated by centrifugation at 4° C. to separate membrane-bound from free radioactivity. […] The rate (k) and maximum percent blockage of glutamate binding (M) by DETC-MeSO (1) during the incubation time (t) was determined by fitting the equation [% inhibition]=M(1−e^−kh) to these day by use of the program Grafit (Erithicus Software Ltd.). This equation was derived for first-order inactivation by a group specific reagent that gives a partial effect. If “A” is the percent of binding activity that remains after extensive exposure (t=of the receptor to excess DETC-MeSO, then M=100−A)e^−kh+A; substituting (100−M) for “A” and [100−% inhibition] for “a” in this equation gives the one employed for purposes of data analyses. […] A second equation was employed in the analysis of binding data that defines partial, irreversible inactivation of two distinct groups of receptors [% inhibition]=M1(1−e^−k1^IT)+M2(1−e^−k1^IT), where M1 and M2 are the maximum amount of inhibition obtained for complete modification of each receptor population and k1 and k2 are the rate constants for these modifications, respectively.
Six determinations of the effect of DETC-MeSO were made at each concentration tested (1, 5, 10, 50, 100, 200, and 1000 μM) and the average value is shown with error bars for one standard deviation.

[2] = biological target: T1, rat liver mitochondrial low Km ALDH (Rattus norvegicus, UniProt P11884); experiment: Liver aldehyde dehydrogenase determined in vivo; settings: intraperitoneal (IP), liver taken eight hours later
T1 construct: differential centrifugation carried out to isolate the mitochondrial faction; from tissue; host or cells: liver mitochondria of male Sprague-Dawley derived rats
T1 sequence (P11884 20-519): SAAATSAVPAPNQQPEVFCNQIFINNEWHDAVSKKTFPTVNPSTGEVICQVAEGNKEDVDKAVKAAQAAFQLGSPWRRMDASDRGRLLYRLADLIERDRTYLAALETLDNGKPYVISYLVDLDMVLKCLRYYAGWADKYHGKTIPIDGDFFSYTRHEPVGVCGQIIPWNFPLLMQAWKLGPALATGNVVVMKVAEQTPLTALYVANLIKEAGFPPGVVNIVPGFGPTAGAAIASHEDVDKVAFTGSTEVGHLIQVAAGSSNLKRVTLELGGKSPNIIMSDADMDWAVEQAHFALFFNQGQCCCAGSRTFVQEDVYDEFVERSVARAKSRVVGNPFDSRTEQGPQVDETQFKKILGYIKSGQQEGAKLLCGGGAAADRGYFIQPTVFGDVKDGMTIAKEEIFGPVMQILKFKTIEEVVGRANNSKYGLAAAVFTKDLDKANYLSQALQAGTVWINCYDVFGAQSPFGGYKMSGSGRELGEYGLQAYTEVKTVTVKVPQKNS
Protocol: To determine if a compound of formula (I) can inhibit aldehyde dehydrogenase activity in vivo, doses of DETC-Me SO (1.3 mg/kg, 2.6 mg/kg, 5.2 mg/kg, 10.3 mg/kg and 20.6 mg/kg), were administered to male Sprague Dawley derived rats weighing 200-400 g. The rats were bred from a resident colony maintained in the Animal Care Unit at the University of Kansas. Rats were maintained on a 12-hour lights cycle with access to food and water ad lib until the night before an experiment, at which time food was removed. Animals were fasted for 12 hours prior to drug administration.
All experiments were carried out in the morning. Rats were treated with the doses of DETC-Me SO or DETC-Me described above, which were dissolved in polyethylene glycol 200. Eight hours later, the rats were anesthetized with carbon-dioxide and then decapitated. The liver was quickly removed and the low Km aldehyde dehydrogenase determined. Control rats were treated with […] vehicle only, and each control data point also represents an average of four rats.
The liver from drug-treated and control rats was homogenized in 0.25 M sucrose and differential centrifugation was carried out to isolate the mitochondrial fraction. The mitochondria were solubilized with sodium deoxycholate, and mitochondrial low Km and total (high and low) aldehyde dehydrogenase activity determined by the method of S. O. C. Tottmar et al., cited above.

[3] = biological target: T1, rat liver mitochondrial low Km ALDH; experiment: In vitro inhibition of rat liver mitochondrial low Km aldehyde dehydrogenase (isolated mitochondria); assay type: biochemical; settings: one hour incubation
Protocol: To determine whether a compound of formula (I) can inhibit low Km aldehyde dehydrogenase, an amount of the compound is added to isolated mitochondria. To prepare isolated mitochondria, male Sprague-Dawley derived rats weighing 200-400 g were anesthetized with carbon dioxide and then decapitated. The livers from untreated rats were homogenized in 0.25 M sucrose and differential centrifugation carried out to isolate the mitochondrial faction. The mitochondria were solubilized with sodium deoxycholate, and mitochondrial low Km ALDH activity determined by the method of S. O. C. Tottmar et al., Biochem. J. 135, 577 (1973).
Mitochondria were isolated from the liver of untreated rats and resuspended in 0.1 M phosphate buffer (pH=7.4). Incubations contained 2 mg of mitochondrial protein, to which was added DETC-Me SO at 0.2 μM, 2.0 μM, 20 μM or 200 μM, or DDTC-Me SO at 0.5 μM, 2.5 μM, 10 μM; 25 μM, 50 μM or 100 μM. The DETC-Me SO or DDTC-Me SO was dissolved in ethanol and the incubations carried out for one hour. Control incubations contained ethanol alone.
At the end of the incubation, the mitochondria were isolated by centrifugation, resuspended in 0.25 M sucrose buffer and solubilized with deoxycholate. Low Km ALDH activity was determined by the method of S. O. C. Tottmar et. al., cited above.

[4] = system: brain glutamate receptors (synaptic membranes); experiment: Glutamate binding to synaptic membranes isolated from treated mice; assay type: in vivo, mouse; settings: 30 μmol/kg intravenous, mice
Protocol: Binding Studies—Synaptic membranes (100 μg protein) were isolated (Y. H. Lee et al., J. Neurosci. Res. 40, 797-806 (1995)) form whole brain homogenate of male Swiss Webster mice and were incubated in 0.1 mM L-glutamate for 30 minutes at 25° C. After addition of 50 nM of [^3H]glutamate, incubation was continued for an additional 45 minutes. Reactions were terminated by centrifugation at 4° C. to separate membrane-bound from free radioactivity. Nonspecific binding (radioactivity bound in the presence of 0.5 mM unlabeled glutamate) averages: 20-30% of total radioactivity bound. The rate (k) and maximum percent blockage of glutamate binding (M) by DETC-MeSO (1) during the incubation time (t) was determined by fitting the equation [% inhibition]=M(1−e^−kh) to these day by use of the program Grafit (Erithicus Software Ltd.). This equation was derived for first-order inactivation by a group specific reagent that gives a partial effect. If “A” is the percent of binding activity that remains after extensive exposure (t=of the receptor to excess DETC-MeSO, then M=100−A)e^−kh+A; substituting (100−M) for “A” and [100−% inhibition] for “a” in this equation gives the one employed for purposes of data analyses. […] A second equation was employed in the analysis of binding data that defines partial, irreversible inactivation of two distinct groups of receptors [% inhibition]=M1(1−e^−k1^IT)+M2(1−e^−k1^IT), where M1 and M2 are the maximum amount of inhibition obtained for complete modification of each receptor population and k1 and k2 are the rate constants for these modifications, respectively.
Synaptic membranes were prepared from the brains of mice injected with DETC-MeSO (5.2 mg/kg, i.p.). The ability of synaptic membrane preparations isolated from DETC-MeSO-treated mice to bind glutamate was compared with similar preparations isolated from control animals. FIG. 3(A) illustrates the results obtained from synaptic membranes prepared from brains of mice killed two hours after a single dose of DETC-MeSO, or two hours after the last injection of multiple consecutive doses (5.2 mg/kg, i.p., daily for seven days). Either single or multiple dosing with DETC-MeSO reduced the capacity of synaptic membranes to bind glutamate by approximately 50%, the maximum effect obtained in vitro (FIG. 3). Each bar represents the average of results obtained from four animals and the error bars are for one standard deviation.

[5] = Carbamoylation of glutathione by DETC-MeSO under physiological conditions; settings: under physiological conditions
Description: This rate of reaction was approximate an order of magnitude faster than that of the more familiar α-haloketone functionality.

[6] = system: ALDH2; experiment: In vitro inactivation of aldehyde dehydrogenase; assay type: biochemical; settings: reversible or irreversible
Protocol: To test whether the protective effect of DETC-MeSO in hyperbaric O2-induced convulsions in mice could be due to inhibition of succinic semi-aldehyde dehydrogenase (SSA DH), mechanistically related to ALDH2, the sensitivity of SSA DH to inactivation by DETC-MeSO was determined. Potentially, inhibition of SSA DH in brain could offset the build up of ammonia known to occur and produce more GABA. In vitro both ALDH2 and SSA DH are inactivated by DETC-MeSO at 47 M-1 s-1 and 300 M-1 s-1, respectively.

[7] = biological target: T2, mouse liver low Km ALDH (Mus musculus, UniProt P47738); experiment: In vivo inhibition of mouse liver aldehyde dehydrogenase; settings: mouse; 30 μmol/kg intravenous, mice
T2 construct: Liver aldehyde dehydrogenase was extracted and assayed as previously described; from tissue; host or cells: liver of treated mice
T2 sequence (P47738 20-519): T1 sequence (P11884 20-519) with Q13H, K34R, Q67R, D237G, D313N, N422D
Protocol: Reagents—DETC-MeSO was synthesized by the method of Hart and Faiman (B. W. Hart et al., Biochem. Pharmacol.), 43, 403-406 (1992). Carbamoylated glutathione, S-(N,N-diethylcarbamoyl)glutathione (DETC-GS), was prepared essentially as described by Jin et al. (L. Jin, supra). The structures and purity of DETC-MeSO and DETC-GS were confirmed by 300 MHz NMR and FAB-tandem mass spectrometry. A QE300 NMR spectrometer (General Electric, Fremont, Calif.) and Autospec-Q Tandem Hybrid mass spectrometer (Fiscons/VG Analytical Limited, Manchester, England) were employed for these analyses. Liver aldehyde dehydrogenase was extracted and assayed as previously described (B. W. Hart et al., supra). MetSOX monosodium L-glutamate, glycine, glutathione, and NMDA were purchased from Sigma Chemical Company (St. Louis, Mo.). L-[3-^3H]Glutamate (46 Ci/mmol) was obtained from Amerisham Life Science (Buckinghamshire, England).

Molecule: CN[C@H](CC(=O)O)C(=O)O [NMDA, N-methyl-D-asparate, reference compound]
reversible blockage of glutamate binding ([1]; 0.5 mM, in the presence of glycine (0.1 mM)): 32±2%
effect on glutamate binding to synaptic membrane preparations [1]: does not block glutamate binding

Molecule: CCN(CC)C(=O)SC [DETC-Me, S-Methyl-N,N-Diethylthiolcarbamate]
dose required to inhibit 50% of the low Km ALDH [2]: 6.5 mg/kg
inhibition of low Km ALDH ([3]; 200 μM): 8%

Molecule: oxidized glutathione [GSSG, reference compound]
effect on glutamate binding to synaptic membrane preparations [1]: reversibly blocked

effect on glutamate binding to synaptic membrane preparations [1]: reversibly blocked
stability of the carbamoylated glutathione [5]: relatively stable
effect on aldehyde dehydrogenase in vitro [6]: no effect
inhibition at 30 µmol/kg [7]: 30.1 ± 1%
Molecule: CCN(CC)C(=O)SC[C@H](NC(=O)CC[C@H](N)C(=O)O)C(=O)NCC(=O)O [DETC-GS, S-(N,N-diethylcarbamoyl)glutathione]
irreversible brain glutamate receptor blockage [4]: 26.9±4.3%

IC50 ([3]; 2 mg mitochondrial protein, read-out: concentration required for 50% inhibition): ~15 µM
Molecule: CCN(CC)C(=S)[S+](C)[O-] (centres unmarked) [DDTC-Me SO, S-Methyl-N,N-Diethyldithiocarbamate Sulfoxide]
